Test results: PubChem BioAssay (NCI)
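Tested at 5 concentrations; 48 h exposure; 96-well plates; endpoints linearly interpolated, else capped at highest concentration. GI50 = concentration required for 50% inhibition of growth. TGI: total growth inhibition.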

Key:
Experiment in all cases: inhibition of tumour cell growth, NCI panel, 48 h
[1] = test system: HCC-2998 colon
[2] = test system: UO-31 renal
[3] = test system: DU-145 prostate
[4] = test system: RPMI-8226 leukemia
[5] = test system: HCT-15 colon
[6] = test system: MOLT-4 leukemia
[7] = test system: HT29 colon
[8] = test system: U251 CNS
[9] = test system: HOP-62 NSCLC
[10] = test system: SF-268 CNS
[11] = test system: RXF 393 renal
[12] = test system: M14 melanoma
[13] = test system: SNB-75 CNS
[14] = test system: CCRF-CEM leukemia
[15] = test system: LOX IMVI melanoma
[16] = test system: A498 renal
[17] = test system: OVCAR-8 ovarian
[18] = test system: SK-MEL-2 melanoma
[19] = test system: SR leukemia
[20] = test system: MDA-MB-435
[21] = test system: SF-539 CNS
[22] = test system: UACC-62 melanoma
[23] = test system: SF-295 CNS
[24] = test system: SN12C renal
[25] = test system: UACC-257 melanoma
[26] = test system: NCI-H460 lung
[27] = test system: SK-OV-3 ovarian
[28] = test system: HS 578T breast
[29] = test system: SK-MEL-5 melanoma
[30] = test system: OVCAR-3 ovarian
[31] = test system: A549 NSCLC
[32] = test system: MALME-3M melanoma
[33] = test system: HOP-92 NSCLC
[34] = test system: K-562 leukemia
[35] = test system: NCI-H522 lung
[36] = test system: SNB-19 CNS
[37] = test system: EKVX NSCLC
[38] = test system: HL-60(TB) leukemia
[39] = test system: COLO 205 colon
[40] = test system: PC-3 prostate
[41] = test system: SW-620 colon
[42] = test system: NCI-H226 lung
[43] = test system: NCI/ADR-RES ovarian
[44] = test system: OVCAR-4 ovarian
[45] = test system: T-47D breast
[46] = test system: MCF7 breast
[47] = test system: CAKI-1 renal
[48] = test system: IGROV1 ovarian
[49] = test system: SK-MEL-28 melanoma
[50] = test system: KM12 colon
[51] = test system: HCT-116 colon
[52] = test system: NCI-H23 lung
[53] = test system: BT-549 breast
[54] = test system: OVCAR-5 ovarian
[55] = test system: 786-0 renal
[56] = test system: MDA-MB-231 breast
[57] = test system: TK-10 renal
[58] = test system: ACHN renal

## O=C(Nc1ccc(Oc2cccc(Cl)c2)c(Cl)c1)c1cnccn1
[1]
  GI50: 5.31 µM
  TGI: > 36 µM
[2]
  GI50: 1910 nM
  TGI: > 50 µM
[3]
  GI50: 839 nM
  TGI: > 50 µM
[4]
  GI50: 323 nM
  TGI: > 50 µM
[5]
  GI50: 171 nM
  TGI: > 50 µM
[6]
  GI50: 371 nM
  TGI: > 50 µM
[7]
  GI50: 168 nM
  TGI: > 20.3 µM
[8]
  GI50: 245 nM
  TGI: > 22.9 µM
[9]
  GI50: 368 nM
  TGI: > 50 µM
[10]
  GI50: 1140 nM
  TGI: > 50 µM
[11]
  GI50: 831 nM
  TGI: 3.47 µM
[12]
  GI50: 225 nM
  TGI: > 50 µM
[13]
  GI50: 258 nM
  TGI: 2330 nM
[14]
  GI50: 367 nM
  TGI: > 50 µM
[15]
  GI50: 275 nM
  TGI: > 50 µM
[16]
  GI50: 5.85 µM
  TGI: 28.2 µM
[17]
  GI50: 1410 nM
  TGI: > 50 µM
[18]
  GI50: 352 nM
  TGI: > 50 µM
[19]
  GI50: 145 nM
  TGI: > 50 µM
[20]
  GI50: 109 nM
  TGI: 290 nM
[21]
  GI50: 306 nM
  TGI: 1720 nM
[22]
  GI50: 345 nM
  TGI: > 50 µM
[23]
  GI50: 480 nM
  TGI: > 25.1 µM
[24]
  GI50: 2560 nM
  TGI: > 50 µM
[25]
  GI50: > 20 µM
  TGI: > 50 µM
[26]
  GI50: 245 nM
  TGI: > 50 µM
[27]
  GI50: 11.5 µM
  TGI: > 50 µM
[28]
  GI50: 214 nM
  TGI: > 50 µM
[29]
  GI50: 280 nM
  TGI: > 50 µM
[30]
  GI50: 198 nM
  TGI: 1160 nM
[31]
  GI50: 312 nM
  TGI: > 50 µM
[32]
  GI50: 1920 nM
  TGI: > 50 µM
[33]
  GI50: 673 nM
  TGI: > 32.8 µM
[34]
  GI50: 162 nM
  TGI: > 50 µM
[35]
  GI50: 296 nM
  TGI: 2550 nM
[36]
  GI50: 338 nM
  TGI: > 50 µM
[37]
  GI50: 771 nM
  TGI: > 50 µM
[38]
  GI50: 556 nM
  TGI: 8.95 µM
[39]
  GI50: 208 nM
  TGI: 16.2 µM
[40]
  GI50: 1060 nM
  TGI: > 50 µM
[41]
  GI50: 216 nM
  TGI: > 50 µM
[42]
  GI50: 1730 nM
  TGI: > 29.8 µM
[43]
  GI50: 265 nM
  TGI: > 11.8 µM
[44]
  TGI: > 50 µM
[45]
  GI50: 460 nM
  TGI: > 50 µM
[46]
  GI50: 183 nM
  TGI: > 50 µM
[47]
  GI50: 844 nM
  TGI: > 50 µM
[48]
  GI50: 363 nM
  TGI: > 50 µM
[49]
  GI50: 14.1 µM
  TGI: > 50 µM
[50]
  GI50: 180 nM
  TGI: > 50 µM
[51]
  GI50: 210 nM
  TGI: > 50 µM
[52]
  GI50: 903 nM
  TGI: > 50 µM
[53]
  GI50: 3.31 µM
  TGI: > 50 µM
[54]
  GI50: 1600 nM
  TGI: > 50 µM
[55]
  GI50: 2160 nM
  TGI: > 50 µM
[56]
  GI50: 452 nM
  TGI: > 40 µM
[57]
  GI50: 3.01 µM
  TGI: > 50 µM
[58]
  GI50: 3.63 µM
  TGI: > 50 µM
